# Molecular target: T1, Aurora A Kinase (Homo sapiens, UniProt O14965)
# T1 sequence (O14965 1-403): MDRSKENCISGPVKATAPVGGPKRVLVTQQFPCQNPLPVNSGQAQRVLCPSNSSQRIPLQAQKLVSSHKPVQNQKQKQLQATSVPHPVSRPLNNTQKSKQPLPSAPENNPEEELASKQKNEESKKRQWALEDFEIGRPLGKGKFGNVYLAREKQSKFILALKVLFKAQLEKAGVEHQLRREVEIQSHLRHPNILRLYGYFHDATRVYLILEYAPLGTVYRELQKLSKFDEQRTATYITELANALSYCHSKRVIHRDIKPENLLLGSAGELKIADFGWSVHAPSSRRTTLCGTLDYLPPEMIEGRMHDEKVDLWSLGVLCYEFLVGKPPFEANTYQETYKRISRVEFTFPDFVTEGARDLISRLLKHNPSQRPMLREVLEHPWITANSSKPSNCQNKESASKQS
# Test: Determination of inhibition of AIK (Aurora A kinase) by direct fluorescence polarization (IMAP)
# Assay type: biochemical
# Settings: read-out: IC50 of Exemplified Compounds Against Aurora A Kinase
# Method: A. Determination of Inhibition of AIK
# The inhibitory properties of compounds relative to AIK may be determined by the Direct Fluorescence Polarization detection method (FP) using a Greiner small volume black 384-well-plate format under the following reaction conditions: 50 mM Hepes pH 7.3, 10 mM MgCl2, 10 mM NaCl, 1 mM DTT, 0.01% Brij35, 100 nM Fluorescein-LRRASLG peptide (provided by SYNPEP), 5% DMSO, 2.5 uM ATP. Detection of the reaction product is performed by addition of IMAP binding reagent (Molecular Devices). Reaction product may be determined quantitatively by FP using an Analyst HT plate reader (Molecular Devices) with an excitation wavelength at 485 nm and emission at 530 nm and using a Fluorescein 505 dichroic mirror.
# The assay reaction may be initiated as follows: 2 ul of (3×) 300 nM Fl-Peptide/7.5 uM ATP was added to each well of the plate, followed by the addition of 2 ul of (3×) inhibitor (2.5 fold serial dilutions for 11 data points for each inhibitor) containing 15% DMSO. 2 ul of (3×) 7.5 nM AIK solution may be added to initiate the reaction (final enzyme concentration was 2.5 nM for AIK). The reaction mixture may then be incubated at room temperature for 45 min, and quenched and developed by addition of 20 ul of 1 to 400 diluted IMAP binding reagent in 1× proprietary IMAP binding buffer. Fluorescence polarization readings of the resulting reaction mixtures may be measured after a 60-minute incubation at room temperature.
# IC50 values may be calculated by non-linear curve fitting of the compound concentrations and fluorescent polarization values to the standard IC50 equation.
row,Structure (SMILES),IC50 [nM]
1,"CCS(=O)(=O)n1ccc2ccc(-c3nc(Nc4cc(C)[nH]n4)c4cc(C)sc4n3)cc21 [Example 3, 2-(1-(ethylsulfonyl)-1H-indol-6-yl)-6-methyl-N-(5-methyl-1H-pyrazol-3-yl)thieno[2,3-d]pyrimidin-4-amine]",≤ 50
2,"CCS(=O)(=O)n1cc(CN(C)C)c2ccc(-c3nc(Nc4cc(C)[nH]n4)c4cc(C)sc4n3)cc21 [Example 4, 2-(3-((dimethylamino)methyl)-1-(ethylsulfonyl)-1H-indol-6-yl)-6-methyl-N-(5-methyl-1H-pyrazol-3-yl)thieno[2,3-d]pyrimidin-4-amine]",≤ 50
3,"Cc1cc(Nc2nc(Sc3ccc(NC(=O)C4CC4)cc3)nc3sc(C)cc23)n[nH]1 [Example 8, N-(4-(6-Methyl-4-(5-methyl-1H-pyrazol-3-ylamino)thieno[2,3-d]pyrimidin-2-ylthio)phenyl)cyclopropanecarboxamide]",≤ 50

# Results, then the compound that gave them:
row,IC50 [nM],Structure (SMILES)
1,≤ 50,"CCS(=O)(=O)c1cccc(-c2nc(Nc3cc(C)[nH]n3)c3cscc3n2)c1 [Example 5, [2-(3-Ethanesulfonyl-phenyl)-thieno[3,4-d]pyrimidin-4-yl]-(5-methyl-1H-pyrazol-3-yl)-amine]"
2,≤ 50,"CCS(=O)(=O)n1ccc2ccc(-c3nc(Nc4cc(C)[nH]n4)c4cscc4n3)cc21 [Example 6, [2-(1-Ethanesulfonyl-1H-indol-6-yl)-thieno[3,4-d]pyrimidin-4-yl]-(5-methyl-1H-pyrazol-3-yl)-amine]"
3,≤ 50,"CCS(=O)(=O)c1cccc(-c2nc(Nc3cc(C)[nH]n3)c3cc(C)sc3n2)c1 [Example 7, 2-(3-(ethylsulfonyl)phenyl)-6-methyl-N-(5-methyl-1H-pyrazol-3-yl)thieno[2,3-d]pyrimidin-4-amine]"
